Measured values published in US20260191933A1, “PHARMACEUTICAL COMBINATIONS AND USES THEREOF” (The University of Melbourne, priority 2022, published 2026).

Columns and labels:
[1] = system: HFHS plus low dose STZ mice; experiment: I.C.V. fluorosamine in late-stage type-2 diabetes model (HFHS plus low dose streptozotocin); format: in vivo, C57BL/6J mice; conditions: I.C.V. for 14 days
Method: Mice were maintained on a 12 h light-dark cycle in a temperature-controlled high-barrier facility with free access to food and water per NHMRC Australian Code of Practice for the Care and Use of Animals. C57BL/6J and Balb/C mice were sourced from the Animal Resources Centre, Australian, whereas Agrp-IRES-Cre (Strain #:012899), db/db (strain #: 000697), Npy-GFP (Strain #:006417), Pomc-GFP (Strain #:009593), LSL-Cas9 (Strain #:028551), NZO (Strain #:002105) mice were sourced from Jackson Laboratories, USA. […]
Metabolic measurements were undertaken in the Melbourne Mouse Metabolic Phenotyping Platform (The University of Melbourne, Australia). […] The areas under glucose excursion curves were determined and expressed as mmol/l×min. Fasted (12 h fast) plasma insulin or glucose levels were determined using a Rat/Mouse Insulin ELISA (EZRMI-13K, Merck Millipore, CA) or an Accu-Check glucometer respectively. The HOMA-IR was calculated using the equation [(glucose×insulin)/405]. Adiposity was measured using TD-NMR minispec (Bruker Optics Inc., Billerica, MA). […]

[2] = system: 12-week obese AgRP-Cas9 mice; experiment: I.C.V. fluorosamine in obese AgRP-Cas9 mice given AAV-gScrambled or AAV-gIR; format: in vivo
Method: To disassemble the CSPG-ECM within the ARC, mice received bilaterally (unless stated otherwise) administration of 15 mU/side of active chABC (C3667, Sigma, St. Louis, […], dissolved in 1 M trehalose) or heat-inactivated chABC protein as a vehicle (chABC in 1 M trehalose was heat-inactivated at 85° C. for 45 mins, as described previously by Alonge et al., 2020) in a total volume of 150 nl/side. To pulse the CSPG-ECM within the ARC or RSG, mice received bilateral (unless stated otherwise) administration of biotinylated WFA (0.3 μg/side, in a volume of 150 nl). To disrupt IR in AgRP neurons, 12-week HFHS fed AgRP-Cas9 mice were stereotaxically injected with AAVs expressing U6-driven guide RNA's targeting the InsR gene or a scrambled sequence (5′ GTGTAGTTCGACCATTCGTG ′3 (SEQ ID NO: 14)) alongside a CAG driven mCherry FLEX switch. Unless otherwise stated injections were bilaterally into the ARC (coordinates, bregma: anterior-posterior, −1.70 mm; dorsal-ventral, −5.85 mm; lateral, +/−0.18 mm, 200 nl/side) or into the RSG (coordinates, bregma: anterior-posterior, −1.40 mm; dorsal-ventral, −1.80 mm; lateral, +/−0.50 mm, 200 nl/side). WFA-biotin was injected unilaterally into the cc (coordinates, bregma: anterior-posterior, −1.40 mm; dorsal-ventral, −5.80 mm; lateral, +/−0.20 mm, 200 nl/side)
To generate AAV-gScrambled (pAAV-U6>mScramble-[…] (SEQ ID NO: 14))-CAG>LL:rev(mCherry):rev(LL):WPRE) and AAV-gIR (pAAV[-U6>mInsr[gRNA-[…] (SEQ ID NO: 15)]-U6>mInsr[gRNA-[…] (SEQ ID NO: 16)]-CAG>LL:rev(mCherry):rev(LL):WPRE) viral vectors, sgRNAs were first designed using online CRISPR tools (http://crispr.mit.edu and http://chopchop.cbu.uib.no/). […] For AAV-gScrambled a pUp-U6>Scramble gRNA vector was generated using the Gibson assembly of a pDONR P4-P1R backbone and primers 5′ […] ′3 (SEQ ID NO: 17) and 5′ […] ′3 (SEQ ID NO: 18). For AAV-gIR a pUp-U6>mInsr[gRNA-[…] (SEQ ID NO: 15)]-U6>mInsr[gRNA-[…] (SEQ ID NO: 16)] gRNA vector was generated using the Gibson assembly of a AarI digested pUp-U6-gRNA-AarI-Stuffer-AarI backbone and primers 5′ […] ′3 (SEQ ID NO: 19) and 5′ […] ′3 (SEQ ID NO: 20). For both AAV-gScrambled and AAV-gIR the p-Up vectors were cloned alongside pDown-CAG and pTail-LL:rev(mCherry):rev(LL) to generate the final vectors by LR reaction using the Gateway method. AAV vectors were packaged into the AAV-DJ/8 steotype at a titre of >2 10^13 GC/ml). All vector cloning and AAV packaging was carried out by VectorBuilder (Chicago, IL).
Under isoflurane anaesthetic 12-week HFHS fed C57BL/6J or AgRP-Cas9 mice were implanted stereotaxically with guide cannulas into the right lateral ventricle (0.2 mm posterior, 1.0 mm lateral from bregma). Guide cannula was positioned 1.3 mm above the injection site (1 mm ventral to the surface of the skull). AgRP-Cas9 mice were treated with either AAV-gScrambled or AAV-gIR and underwent guide cannula placement 7 days post AAV administration. Mice were administered I.C.V. vehicle (ddH2O), fluorosamine (100 μg/animal/day or 250 μgl/animal/day) in a volume of 2 μl/animal and all compounds were delivered approximately 1 h before lights off (7 pm).

[3] = AAV-gScrambled AgRP-Cas9 mice, 100 μg/animal I.C.V. daily for 10 days

SMILES: CC(=O)NC1C(OC(C)=O)OC(COC(C)=O)[C@@H](F)C1OC(C)=O (stereo partly shown) [PZ6005, per-O-acetylated-4-F-N-acetylglucosamine]
- remission of metabolic disease (daily blood glucose, glucose tolerance) [1]: promote the remission of metabolic disease
- positive metabolic outcomes ([2]; AAV-IR AgRP-Cas9 mice): mitigated, at least in part
- adiposity [2, 3]: reduced adiposity
- body weight [2, 3]: promoted weight loss
- caloric intake [2, 3]: attenuated caloric intake
- energy expenditure [2, 3]: enhanced energy expenditure
- glycaemic control [2, 3]: improved glycaemic control
